Experimental data as given in paper PMC4848594 (Viruses, 2016).

Legend:
RHDV RdRp [1] = biological target: T1, RHDV RdRp (Rabbit hemorrhagic disease virus-V351, UniProt P27411); assay: PicoGreen dsRNA de novo polymerase assay; type: biochemical
T1 construct: gene ORF1

RCV RdRp [2] = assay: PicoGreen dsRNA de novo polymerase assay; type: biochemical, Rabbit calicivirus Australia 1 (Lagovirus europaeus GI.4); conditions: 45 μM rGTP, 10 ng/μL poly(C), 2.5 mM MnCl2, pH 7.5, 30 °C, 10 min preincubation; non-nucleoside inhibitor
NoV RdRp [3] = assay: PicoGreen dsRNA assay, substrate inhibition model; type: biochemical, Norovirus GII.4 (Norwalk virus, Norovirus norwalkense); conditions: substrate inhibition constant; rGTP 0–2.0 mM, 20 ng/μL poly(C), 2.5 mM MnCl2, pH 7.5, 30 °C
RCV RdRp [4] = assay: PicoGreen dsRNA assay, substrate inhibition model; type: biochemical, Rabbit calicivirus Australia 1 (Lagovirus europaeus GI.4); conditions: substrate inhibition constant; rGTP 0–2.0 mM, 20 ng/μL poly(C), 2.5 mM MnCl2, pH 7.5, 30 °C
RHDV RdRp [5] = biological target: T1, RHDV RdRp; assay: PicoGreen dsRNA assay, substrate inhibition model; type: biochemical; conditions: substrate inhibition constant; rGTP 0–2.0 mM, 20 ng/μL poly(C), 2.5 mM MnCl2, pH 7.5, 30 °C
RCV RdRp [6] = assay: PicoGreen dsRNA assay, Michaelis-Menten model; type: biochemical, Rabbit calicivirus Australia 1 (Lagovirus europaeus GI.4); conditions: 20 ng/μL poly(C), 2.5 mM MnCl2, 5 mM DTT, pH 7.5, 30 °C; Michaelis-Menten fit
NoV RdRp [7] = assay: PicoGreen dsRNA assay, Michaelis-Menten model; type: biochemical, Norovirus GII.4 (Norwalk virus, Norovirus norwalkense); conditions: 20 ng/μL poly(C), 2.5 mM MnCl2, 5 mM DTT, pH 7.5, 30 °C; Michaelis-Menten fit
[8] = test system: Nc1nc2c(ncn2[C@@H]2O[C@H](COP(=O)(O)OP(=O)(O)OP(=O)(O)O)[C@@H](O)[C@H]2O)c(=O)[nH]1; assay: purified protein; conditions: 20 ng/μL poly(C), 2.5 mM MnCl2, 5 mM DTT, pH 7.5, 30 °C, Michaelis-Menten fit

T1 sequence (P27411 1252-1767): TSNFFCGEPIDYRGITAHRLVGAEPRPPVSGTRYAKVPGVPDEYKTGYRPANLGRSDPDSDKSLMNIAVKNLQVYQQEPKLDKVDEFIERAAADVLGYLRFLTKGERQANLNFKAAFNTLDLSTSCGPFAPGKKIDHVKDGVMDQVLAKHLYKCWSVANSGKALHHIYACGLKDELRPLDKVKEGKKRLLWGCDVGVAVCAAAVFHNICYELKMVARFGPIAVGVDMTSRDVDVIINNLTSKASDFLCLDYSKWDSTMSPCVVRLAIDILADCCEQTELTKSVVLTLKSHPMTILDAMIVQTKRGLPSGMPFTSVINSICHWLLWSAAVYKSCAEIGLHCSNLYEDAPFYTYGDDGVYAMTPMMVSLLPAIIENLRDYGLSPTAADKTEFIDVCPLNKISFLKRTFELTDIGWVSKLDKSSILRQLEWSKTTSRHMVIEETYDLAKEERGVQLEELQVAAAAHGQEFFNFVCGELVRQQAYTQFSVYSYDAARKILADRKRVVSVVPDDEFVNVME

Cc1nc(-c2ccccc2)sc1C(=O)Nc1sc2c(c1C#N)CCC2 [NIC02]
IC50 (RHDV RdRp [1]): 19.9 µM
IC50 (RCV RdRp [2]): 13.5 µM

Nc1nc2c(ncn2[C@@H]2O[C@H](COP(=O)(O)OP(=O)(O)OP(=O)(O)O)[C@@H](O)[C@H]2O)c(=O)[nH]1 [rGTP]
NoV RdRp (NoV RdRp [3]): 0.6 ± 0.2 mM
RCV RdRp (RCV RdRp [4]): 1.7 ± 0.2 mM
RHDV RdRp (RHDV RdRp [5]): 2.1 ± 0.4 mM
Km (RCV RdRp [6]): 5.7 ± 0.7 µM
Km (NoV RdRp [7]): 77.7 ± 14.5 µM

RHDV RdRp (Rabbit hemorrhagic disease virus-V351)
Km [8]: 14.6 ± 2.4 µM
